Experimental data reported in patent publication US11702403B2, “EAAT2 activators and methods of using thereof” (OHIO STATE INNOVATION FOUNDATION, priority 2018, dated 2023).
Counter-ions that a name gives are not always drawn.

Key:
[1] = test system: human EAAT2; test: EAAT2 protein levels in PA-EAAT2 cells by Western blot; assay type: cell-based; conditions: PA-EAAT2 cells, 24 hr; for Fold increase for EAAT2 at indicated concentration (maximum activity): EAAT2 protein relative to DMSO; for concentration that reaches maximum activity: tested 0.0375-10 μM
Description: Compounds were evaluated in PA-EAAT2 cells, a primary astrocyte stably expressing human EAAT2 mRNAs (Kong et al., J Clin Invest. 2014:1255-67). Cells were treated with compound at 0.0375, 0.075, 0.15, 0.3, 0.6, 1.25, 2.5, 5, 10 μM for 24 hr and then harvested for measuring EAAT2 protein levels by Western blot analysis.

[2] = test system: EAAT2; test: EAAT2 protein levels in brains of wild-type C57BL/6 mice by Western blot; assay type: in vivo; conditions: oral 0.01-100 mg/kg/day for seven or 28 days
Description: Mice then were euthanized and brains were harvested for examining EAAT2 protein levels by Western blot analysis.
Wild-type C57BL/6 mice (2-3 months old) were treated orally with compound 101 at 0.01, 0.033, 0.1, 0.33, 1, 3.33, 10, 20, 40, 60, and 100 mg/kg/day (voluntary ingestion of compound in honey) for seven or 28 days. Mice then were euthanized and brains were harvested for examining EAAT2 protein levels by Western blot analysis. […] To determine the functional consequences of the increased EAAT2 to the synaptic plasticity, wild-type mice were treated with vehicle or compound 101 at 0.033, 0.33, and 3.3 mg/kg for seven days. Mice were then euthanized and acute hippocampal slices were collected and assessed for changes in long-term potentiation (LTP).

[3] = test system: CA3-CA1 LTP in the hippocampus; test: Long-term potentiation (LTP) in acute hippocampal slices of treated wild-type mice; assay type: in vivo; conditions: 0.033, 0.33, and 3.3 mg/kg for seven days, vs vehicle
Description: Mice were treated with compound at 40 mg/kg (or as depicted) and forebrains were harvested for the gliosome preparation 24 hr (or as described) post-treatment. FIG. 2A: Western blots show dose-dependent increase of EAAT2 protein levels. FIG. 2B: Time-dependent fold increase in EAAT2 protein expression in response to compound treatment at 4 hours (1.54±0.13) and 24 hours (1.98±0.19) post-treatment. Quantification of EAAT2 expression time course (normalized to flotilin; n=4/group). Data represented as mean SEM and analyzed using one-way ANOVA with Tukey post-hoc test. *p<0.05, **p<0.01. FIG. 2C: Compound treatment enhances CA3-CA1 LTP in the hippocampus. Mice were treated with vehicle or compound for seven days and acute hippocampal sections were collected for LTP recordings. […] Data represented as mean SEM analyzed using one-way ANOVA with Bonferroni post-hoc tests. […]
At 24 hours post-treatment, mice were euthanized and forbrains were harvested. […] Acute hippocampal slices were then collected and assessed for changes in long-term potentiation (LTP).
Wild-type C57BL/6 mice (2-3 months old) were treated orally with compound 101 at 0.01, 0.033, 0.1, 0.33, 1, 3.33, 10, 20, 40, 60, and 100 mg/kg/day (voluntary ingestion of compound in honey) for seven or 28 days. […] Mice were then euthanized and acute hippocampal slices were collected and assessed for changes in long-term potentiation (LTP).

Row | SMILES | Fold increase for EAAT2 at indicated concentration (maximum activity) [1] [fold] | concentration that reaches maximum activity [1] [µM] | EAAT2 protein levels in mouse brains [2] | CA1 field potential responses to stimulation of CA3 afferents (LTP) [3]
1 | CNCCn1nc(-c2ccccn2)ccc1=O [Compound 101, 2-(2-(Methylamino)ethyl)-6-(pyridin-2-yl)pyridazin-3(2H)-one hydrochloride] | 2.6 ± 0.2 | 0.3 | dose-dependently increased | significantly increased responses
2 | NCCn1nc(-c2ccccn2)ccc1=O [Compound 102, 2-(2-Aminoethyl)-6-(pyridin-2-yl)pyridazin-3(2H)-one hydrochloride] | 2.8 ± 0.3 | 1.25 |  | 
3 | CN(CCn1nc(-c2ccccn2)ccc1=O)c1ccccc1 [Compound 110, 2-(2-(Methyl(phenyl)amino)ethyl)-6-(pyridin-2-yl)pyridazin-3(2H)-one] | 2.3 ± 0.3 | 0.6 |  | 
4 | CNC(=O)CCn1nc(-c2ccccn2)ccc1=O [Compound 123, N-Methyl-3-(6-oxo-3-(pyridin-2-yl)pyridazin-1(6H)-yl)propanamide] | 2.5 ± 0.2 | 0.3 |  | 
5 | O=c1ccc(-c2ccccn2)nn1CCN1CCOCC1 [Compound 126, 2-(2-Morpholinoethyl)-6-(pyridin-2-yl)pyridazin-3(2H)-one hydrochloride] | 2.2 ± 0.5 | 0.3 |  | 
6 | O=C1CCCN1CCn1nc(-c2ccccn2)ccc1=O [Compound 133, 2-(2-(2-Oxopyrrolidin-1-yl)ethyl)-6-(pyridin-2-yl)pyridazin-3(2H)-one] | 1.9 ± 0.3 | 2.5 |  | 
7 | O=c1ccc(-c2ccccn2)nn1Cc1ncco1 [Compound 146, 2-(Oxazol-2-ylmethyl)-6-(pyridin-2-yl)pyridazin-3(2H)-one] | 2.6 ± 0.2 | 2.5 |  | 
8 | CN(C)CCCn1nc(-c2ccccn2)ccc1=O [Compound 166, 2-(3-(Dimethylamino)propyl)-6-(pyridin-2-yl)pyridazin-3(2H)-one hydrochloride] | 2.0 ± 0.2 | 0.3 |  | 
9 | COCCn1nc(-c2ccccn2)ccc1=O [Compound 172, 2-(2-Methoxyethyl)-6-(pyridin-2-yl)pyridazin-3(2H)-one] | 2.9 ± 0.1 | 0.3 |  | 
10 | Cc1cc(-c2ccccn2)nn(CCN(C)C)c1=O [Compound 195, 2-(2-(Dimethylamino)ethyl)-4-methyl-6-(pyridin-2-yl)pyridazin-3(2H)-one hydrochloride] | 2.5 ± 0.2 | 0.3 |  | 
11 | Cc1cc(=O)n(CCN(C)C)nc1-c1ccccn1 [Compound 196, N,N-2-(2-(dimethylamino)ethyl)-5-methyl-6-(pyridin-2-yl)pyridazin-3(2H)-one hydrochloride] | 4.2 ± 0.2 | 0.6 |  | 
12 | CC(c1ccccn1)n1nc(-c2ccccn2)ccc1=O (stereo not shown) [Compound 198, 6-(Pyridin-2-yl)-2-(1-(pyridin-2-yl)ethyl)pyridazin-3(2H)-one] | 2.0 ± 0.3 | 0.15 |  | 
13 | Cn1ccnc1Cn1nc(-c2ccccn2)ccc1=O [Compound 201] | 2.5 ± 0.4 | 0.6 |  | 
14 | CN(C)CCOc1ccccc1NC(=O)Cn1nc(-c2ccccn2)ccc1=O [Compound 203, N-(2-(2-(Dimethylamino)ethoxy)phenyl)-2-(6-oxo-3-(pyridin-2-yl)pyridazin-1(6H)-yl)acetamide] | 2.0 ± 0.2 | 0.6 |  | 
15 | COc1ccccc1-c1ccc(=O)n(CCN(C)C)n1 [Compound 206, 2-(2-(Dimethylamino)ethyl)-6-(2-methoxyphenyl)pyridazin-3(2H)-one hydrochloride] | 2.4 ± 0.1 | 0.15 |  | 
16 | COc1cccc(-c2ccc(=O)n(CCN(C)C)n2)c1 [Compound 207, 2-(2-(Dimethylamino)ethyl)-6-(3-methoxyphenyl)pyridazin-3(2H)-one hydrochloride] | 3.5 ± 0.3 | 0.15 |  | 
17 | COc1ccc(-c2ccc(=O)n(CCN(C)C)n2)cc1 [Compound 208, 2-(2-(Dimethylamino)ethyl)-6-(4-methoxyphenyl)pyridazin-3(2H)-one hydrochloride] | 1.7 ± 0.2 | 0.3 |  | 
18 | CN(C)CCn1cc(-c2ccccn2)ccc1=O [Compound 213, 1′-(2-(Dimethylamino)ethyl)-[2,3′-bipyridin]-6′(1′H)-one hydrochloride] | 2.3 ± 0.1 | 0.6 |  | 
19 | CN(C)CCn1cc(-c2ccccn2)ncc1=O [Compound 214, 1-(2-(Dimethylamino)ethyl)-5-(pyridin-2-yl)pyrazin-2(1H)-one hydrochloride] | 1.5 ± 0.1 | 2.5 |  | 
